Consider five substances from patent US7867976B2, “Nogo epitopic fragments for modulating immune response” (The Board of Trustees of the Leland Stanford Junior …, priority 2003, dated 2011).

In one experiment the target is Normal Mouse Serum. As to the kind of experiment: myelin antigen microarray; positive-control feature 'Anti-mouse IgG/M' capturing immunoglobulin of the serum in column 'a. Normal'.
In the next experiment the test system is whole lymph node cells. The experiment can be described thus: whole lymph node cell proliferation assay against Nogo and irrelevant peptides after Nogo-66 peptide immunization. In kind it is cell-based, mice. To be noted: draining lymph nodes at end of experiments. The source says: Induction of EAE and T cell responses with Nogo-66 peptides in susceptible mouse strains. To ascertain the potential for Nogo-A to act as a target autoantigen for autoimmune demyelination, we chose to focus on the exposed extracellular 66-amino acid loop, Nogo-66, since this should be the region most prone to interaction with immune cells. EAE susceptible SJL/J and C57BU6 female mice of the appropriate age were subcutaneously immunized with Nogo-66 derived peptides in CFA, in various concentration ranging from 200 μg to 1000 μg, together with intravenous administration of Pertussis toxin.
Three different arbitrarily selected peptides were synthesized to encompass the whole sequence (peptides 1-22, 23-44 and 45-66). […] To evaluate the generation of a T cell proliferative response against the immunizing antigen, we collected draining lymph nodes at the end of the experiments and setup whole lymph node cell proliferation assays against our panel of Nogo and irrelevant peptides. […] Therefore, T cell epitopes appear to be slightly different between these two strains.
(§1) Immunization. For Nogo immunizations, SJL/J and C57BU6 female mice were injected subcutaneously with Nogo-peptide emulsions (concentrations ranging from 100 μg to 500 μg per injection) in CFA, consisting of IFA (Difco) and 1 mg/ml heat-inactivated Mycobacterium tuberculosis (strain H37RA; Difco laboratories, Detroit Mich.). Animals received two subcutaneous injections a week apart in different sites (flank and groin); at the time of the second immunization and 48 hours later, mice were injected intravenously with Bordetella pertussis toxin (List Laboratories) in PBS, 500 ng/animal; For Nogo-A/B/C knockouts, animals were immunized subcutaneously with 100 μg of MOG35-55 peptide emulsion in CFA and received two intravenous injections of 300 ng of Bordetella pertussis toxin, at the time of immunization and 48 hours later. Chronic EAE was induced in SJL/J mice by subcutaneous injection of 100 mg of PLP139-151 peptide emulsion in CFA. Animals were clinically scored daily according to the following scale: 0-normal; 1-tail paralysis; 2-hind limb paraparesis; 3-complete hind limb paralysis; 4-forelimb paresis or paralysis; 5-death.
Proliferation assays. Whole lymph node cells were cultured in 96-well microtiter plates at 0.5×10^6 cells/well. Culture medium consisted of RPMI 1640 supplemented with L-glutamine (2 mM), sodium pyruvate (1 mM), non-essential amino acids (0.1 mM), penicillin (100 U/ml), streptomycin (0.1 mg/ml), 2-ME (5×10^−5 M) and 10% fetal bovine serum. Wells were pulsed with 1 μCi [^3H]TdR for the final 16 hours of culture, and incorporated radioactivity was measured using a betaplate scintillation counter.

The subject of experiment [1] is myelin antigens (2304-feature spotted peptide array, 293 distinct antigens). As to the kind of experiment: antibody (B cell) response of sera from immunized animals on spotted peptide array. In kind it is in vivo, mice. The following applies: for epitope spreading of the B cell response to other myelin antigens: sera on proteome array, statistical and cluster analysis.
Text: Nogo-66 peptide immunization induces a B cell response with epitope spreading to other myelin antigens. To follow the induction of a specific antibody response to the immunizing Nogo peptides, and the possible spread to other myelin antigens, we used an 2304-feature spotted peptide array developed in our laboratory that contains 293 distinct antigens including proteins and sets of overlapping peptides representing all major EAE-relevant targets and several Nogo-66 overlapping peptides together with p472 (Robinson, 2001). Sera from several immunized animals was obtained at different time points after EAE induction with all three Nogo peptides, and hybridized to the proteome array according to our protocol.
This was particularly relevant after immunization with pNogo45-66 in both strains, and with pNogo23-44 for C57BU6 mice. Spreading of the B cell response evidenced a specific pattern for each immunizing antigen within each strain, with very little overlap between them.
as §1, with “Chronic EAE was induced in SJL/J mice by subcutaneous injection of 100 mg of PLP139-151 peptide emulsion in CFA.” left out

Experiment [2] relates to whole lymph node cells (T cells, dendritic cells). As to the kind of experiment: FACScan analysis of activation markers and co-stimulatory molecules after immunization. To be noted: female SJL/J, 10 days post-immunization; compared with PLP139-151. In kind it is cell-based, mice. The text has this:
We purified whole lymph node cells from female SJL/J animals 10 days post-immunization with PLP139-151, pNogo1-22 and pNogo45-66 and looked at the expression of several activation markers and co-stimulatory molecules by fluorescence activated cell scan (FACScan) analysis. […] Nogo-peptides are capable of normal presentation by APC and immunization leads to normal activation of T cells.

Another experiment concerns EAE in SJL/J mice. The experiment can be described thus: adoptive transfer of Nogo-reactive T cells into SJL/J mice with PLP139-151 induced EAE. It is filed as in vivo. To be noted: cells of EAE animals that received TCL; compared with PLP139-151. The procedure: We induced EAE in SJL/J mice by immunization with 100 μg of PLP139-151 peptide in CFA and followed these animals for disease course. At the peak of second relapse (day 31), animals were randomized into three groups and received either weekly PBS, anti-pNogo1-22 or anti-pNogo45-66 reactive T cells in PBS (average of 15 million cells), by intravenous administration for three weeks. […] For these animals, this improvement was maintained throughout the next 45 days of the experiment, up to 30 days after the last TCL administration.
Immunization. For Nogo immunizations, SJL/J and C57BU6 female mice were injected subcutaneously with Nogo-peptide emulsions (concentrations ranging from 100 μg to 500 μg per injection) in CFA, consisting of IFA (Difco) and 1 mg/ml heat-inactivated Mycobacterium tuberculosis (strain H37RA; Difco laboratories, Detroit Mich.). […] Animals were clinically scored daily according to the following scale: 0-normal; 1-tail paralysis; 2-hind limb paraparesis; 3-complete hind limb paralysis; 4-forelimb paresis or paralysis; 5-death.
Proliferation assays. […] Wells were pulsed with 1 μCi [^3H]TdR for the final 16 hours of culture, and incorporated radioactivity was measured using a betaplate scintillation counter.

The target of another experiment is Bi MOG35-55 BIOTIN. As to the kind of experiment: myelin antigen microarray, serum antibody binding to spotted feature 'Bi MOG35-55 BIOTIN'.

With Anti-mouse IgG/M (antibody), in the experiment with Normal Mouse Serum, the microarray signal (quantity and unit not named on the sheet) is 50000.

Regarding “Nogo23-44 (LESEVAISEELVQKYSNSALGH; SEQ ID NO:5) [pNogo23-44, peptide 23-44 of the extracellular 66-amino acid loop Nogo-66]”, in the experiment with whole lymph node cells (C57BU6 animals, listed as Ng23-44), the “T cell proliferative response against the immunizing antigen” value (shortened to “T cell proliferative response”) is given as “T cell reaction”. The “epitope spreading of the B cell response to other myelin antigens” value in experiment [1] is “to MOG and MBP peptides (especially in C57BU6 animals)”.

Turning to “Nogo45-66 (VNSTIKELRRLFLVDDLVDSLK; SEQ ID NO:2) [pNogo45-66, peptide 45-66 of the extracellular 66-amino acid loop Nogo-66]”, in experiment [2], the “cell surface expression of CD25, CD18, CD40L, CD62, CD69, CD28 and CTLA4e in T cells or CD80, CD86, CD40 in dendritic cells” value is given as “could not find any difference”. In addition, the “T cell proliferative response” value was “strong and specific proliferative response” with whole lymph node cells (SJL/J animals); “T cell reaction” in the experiment on whole lymph node cells (SJL/J animals, listed as Ng45-66). The “strength as B cell antigen compared with the other peptides” value in experiment [1] (mouse, in vivo) is listed as “much stronger B cell antigen than any of the other two synthesized peptides”. The “in vitro proliferation at the end of the experiment” value with EAE in SJL/J mice is recorded as “much stronger than against the EAE inducing antigen”.

As to “Nogo 1-22 (RIYKGVIQAIQKSDEGHPFRAY; SEQ ID NO:4) [pNogo1-22, peptide 1-22 of the extracellular 66-amino acid loop Nogo-66]”, the “cell surface expression of CD25, CD18, CD40L, CD62, CD69, CD28 and CTLA4e in T cells or CD80, CD86, CD40 in dendritic cells” value in experiment [2] is “could not find any difference”. In addition, the “T cell proliferative response” value was “T cell reaction” with whole lymph node cells (C57BU6 animals, listed as Ng1-22); “strong and specific proliferative response” in the experiment with whole lymph node cells (SJL/J animals); “T cell reaction” in the experiment with whole lymph node cells (SJL/J animals, listed as Ng1-22). For the same substance, the “epitope spreading of the B cell response to other myelin antigens” value in experiment [1] is listed as “mainly to MBP peptides”.

Substance Normal Mouse Serum returned a microarray signal (quantity and unit not named on the sheet) in the experiment with Bi MOG35-55 BIOTIN of 5.
